Source: US20110053770A1, “SUBSTITUTED AMINOTHIAZOLES AND THEIR USE AS FUNGICIDES” (BAYER CROPSCIENCE AG, priority 2009, published 2011)
Marks after values point to notes of the source that are not given here.

Test: logP by HPLC on reversed-phase columns (C 18), EEC directive 79/831 Annex V.A8
Assay type: physicochemical
Conditions: for log P (***) / log P (**): LC-MS; for log P (***): neutral range, pH 7.8, 0.001 molar aqueous ammonium bicarbonate and acetonitrile; for log P (*) / log P (**): acidic range; for log P (*): pH 2.3, 0.1% aqueous phosphoric acid and acetonitrile; for log P (**): pH 2.7, 0.1% aqueous formic acid and acetonitrile
Description: Calibration was carried out using unbranched alkan-2-ones (having from 3 to 16 carbon atoms) with known logP values (the logP values were determined by the retention times using linear interpolation between two successive alkanones).

SMILES	log P (***)	log P (*)	log P (**)
Fc1cccc(F)c1Oc1ccccc1-c1csc(N=C2CCCCN2)n1 [compound 76, 4-[2-(2,6-difluorophenoxy)phenyl]-N-[(2E/Z)-piperidin-2-ylidene]-1,3-thiazole-2-amine]	3.78	1.8	
FC(F)(F)c1ccccc1-c1csc(N=C2CCCCN2)n1 [compound 21, N-[(2E/Z)-piperidin-2-ylidene]-4-[2-(trifluoromethyl)phenyl]-1,3-thiazole-2-amine]	3.25	1.76	1.76
CC(=O)N1CCCCC1=Nc1nc(-c2ccc3c(c2)OCO3)cs1 [compound 39, 1-[(2E/Z)-2-{[4-(1,3-benzodioxol-5-yl)-1,3-thiazol-2-yl]imino}piperidin-1-yl]ethanone]	2.95	2.96	2.96
Fc1ccc(-c2csc(N=C3CCCCN3)n2)cc1 [compound 54, 4-(4-fluorophenyl)-N-[(2E/Z)-piperidin-2-ylidene]-1,3-thiazole-2-amine]		1.23*	
Clc1cc(Cl)cc(-c2csc(N=C3CCCCN3)n2)c1 [compound 55, 4-(3,5-dichlorophenyl)-N-[(2E/Z)-piperidin-2-ylidene]-1,3-thiazole-2-amine]	4.21	1.59	
Cc1ccc(Oc2ccccc2-c2csc(N=C3CCCN3)n2)c(C)c1 [compound 95, 4-[2-(2,4-dimethylphenoxy)phenyl]-N-[(2E/Z)-pyrrolidin-2-ylidene]-1,3-thiazole-2-amine]	2.48		2.52
C=CCOc1ccccc1-c1csc(N=C2CCCCN2)n1 [compound 22, N-[(2E/Z)-piperidin-2-ylidene]-4-[2-(prop-2-en-1-yloxy)phenyl]-1,3-thiazole-2-amine]	3.45	1.83	1.83
Clc1cccc(Oc2ccccc2-c2csc(N=C3CCCCN3)n2)c1 [compound 85, 4-[2-(3-chlorophenoxy)phenyl]-N-[(2E/Z)-piperidin-2-ylidene]-1,3-thiazole-2-amine]		2.16*	
Clc1ccc(Cc2ccccc2-c2csc(N=C3CCCCN3)n2)cc1Cl [compound 92, 4-[2-(3,4-dichloro-benzyl)phenyl]-N-[(2E/Z)-piperidin-2-ylidene]-1,3-thiazole-2-amine]	5.07	2.36	
FC(F)(F)Oc1ccccc1-c1csc(N=C2CCCCN2)n1 [compound 15, N-[(2E/Z)-piperidin-2-ylidene]-4-[2-(trifluoromethoxy)phenyl]-1,3-thiazole-2-amine]	3.54	1.77	1.77
Clc1ccc(-c2csc(N=C3CCCCN3)n2)c(Cl)c1 [compound 104, 4-(2,4-dichlorophenyl)-N-[(2E/Z)-piperidin-2-ylidene]-1,3-thiazole-2-amine]	3.92	1.76	1.76
Brc1cccc(-c2csc(N=C3CCCCN3)n2)c1 [compound 46, 4-(3-bromophenyl)-N-[(2E/Z)-piperidin-2-ylidene]-1,3-thiazole-2-amine]			1.8**
Brc1ccc(-c2csc(N=C3CCCCN3)n2)cc1 [compound 3, 4-(4-bromophenyl)-N-[(2E/Z)-piperidin-2-ylidene]-1,3-thiazole-2-amine]			1.67**
Clc1ccc(-c2csc(N=C3CCCCN3)n2)cn1 [compound 63, 4-(6-chloropyridin-3-yl)-N-[(2E/Z)-piperidin-2-ylidene]-1,3-thiazole-2-amine]	2.38	0.94	
